Assay results reported in patent US20090123561A1, “Fungicide mixtures based on 1-methyl-pyrazol-4-ylcarboxanilides” (BASF AKTIENGESELLLSCHAFT, priority 2005, published 2009).

Columns and labels:
Format in all cases: in vivo
[1] = system: Pyrenophora [syn. Drechslera] teres; assay: Activity against net blotch of barley caused by Pyrenophora teres, 1 day protective application; settings: barley seedlings, efficacy in % of untreated control, read after 6 days
Description: (§1) The active compounds, separately or jointly, were prepared as a stock solution comprising 25 mg of active compound which was made up to 10 ml using a mixture of acetone and/or dimethyl sulfoxide and the emulsifier Uniperol® EL (wetting agent having an emulsifying and dispersing action based on ethoxylated alkylphenols) in a ratio by volume of solvent/emulsifier of 99:1. The mixture was then made up to 100 ml with water. This stock solution was diluted with the solvent/emulsifier/water mixture described to give the concentration of active compound stated below.
(§2) Alternatively, the active compounds epoxiconazole and pyraclostrobin were used as a commercial formulation and diluted with water to the stated active compound concentrations.
(§3) The visually determined percentages of infected leaf areas were converted into efficacies in % of the untreated control:
(§4) The efficacy (E) is calculated as follows using Abbot's formula: […]
(§5) α corresponds to the fungicidal infection of the treated plants in % and β corresponds to the fungicidal infection of the untreated (control) plants in %
(§6) An efficacy of 0 means that the infection level of the treated plants corresponds to that of the untreated control plants; an efficacy of 100 means that the treated plants are not infected.
(§7) The expected efficacies of active compound combinations were determined using Colby's formula (Colby, S. R. “Calculating synergistic and antagonistic responses of herbicide combinations”, Weeds, 15, pp. 20-22, 1967) and compared with the observed efficacies.
(§8) E=x+y−x·y/100 Colby's formula • E expected efficacy, expressed in % of the untreated control, when using the mixture of the active compounds A and B at the concentrations a and b • x efficacy, expressed in % of the untreated control, when using the active compound A at the concentration a • y efficacy, expressed in % of the untreated control, when using the active compound B at the concentration b
Activity Against Net Blotch of Barley Caused by Pyrenophora teres, 1 Day Protective Application
Leaves of potted barley seedlings were sprayed to runoff point with an aqueous suspension having the active compound concentration stated below. 24 hours after the spray coating had dried on, the test plants were inoculated with an aqueous spore suspension of Pyrenophora [syn. Drechslera] teres, the net blotch pathogen. The test plants were then placed in a greenhouse at temperatures between 20 and 24° C. and at 95 to 100% relative atmospheric humidity. After 6 days, the extent of the development of the disease was determined visually in % infection of the entire leaf area.

Alternaria solani = assay: Activity against early blight of tomato caused by Alternaria solani (protective spray on potted tomato plants); settings: read after 5 days
Description: as §1, §2, §3, §4, §5, §6, §7, §8
Activity Against Early Blight of Tomato Caused by Alternaria solani
Leaves of potted tomato plants were sprayed to runoff point with an aqueous suspension having the active compound concentration stated below. The next day, the leaves were infected with an aqueous spore suspension of Alternaria solani in a 2% strength biomalt solution having a density of 0.17×10^6 spores/ml. The plants were then placed in a water vapor-saturated chamber at temperatures between 20 and 22° C. After 5 days, the disease on the untreated but infected control plants had developed to such an extent that the infection could be determined visually in %.

Botrytis cinerea = assay: Activity against gray mold on bell pepper leaves caused by Botrytis cinerea, 1 day protective application; settings: efficacy in % of untreated control, read after 5 days
Description: as §1, §2, §3, §4, §5, §6, §7, §8
Activity Against Gray Mold on Bell Pepper Leaves Caused by Botrytis cinerea, 1 Day Protective Application
Bell pepper seedlings of the cultivar “Neusiedler Ideal Elite” were, after 2-3 leaves were well developed, sprayed to runoff point with an aqueous suspension in the active compound concentrations stated below. The next day, the treated plants were inoculated with a spore suspension of Botrytis cinerea which comprised 1.7×10^6 spores/ml in a 2% strength aqueous biomalt solution. The test plants were then placed in a dark climatized chamber at 22 to 24° C. and high atmospheric humidity. After 5 days, the extent of the fungal infection on the leaves could be determined visually in %.

[2] = single active compound 63 mg/l, efficacy in % of untreated control (Abbot)

## Fc1ccc([C@]2(Cn3cncn3)O[C@H]2c2ccccc2Cl)cc1 (racemic) [epoxiconazole, (2RS,3SR)-1-[3-(2-chlorophenyl)-2,3-epoxy-2-(4-fluorophenyl)propyl]-1H-1,2,4-triazole]
[1]; single active compound 1 mg/l
  Efficacy (% of untreated control): 0%

## N#Cc1c(Cl)c(Cl)c(Cl)c(C#N)c1Cl [chlorothalonil, 2,4,5,6-tetrachloroisophthalonitrile]
Alternaria solani; [2]
  Efficacy (% of untreated control, Abbott): 0%

## COc1cc(C)c(C(=O)c2c(OC)ccc(Br)c2C)c(OC)c1OC [metrafenone, 3′-bromo-2,3,4,6′-tetramethoxy-2′,6-dimethylbenzophenone]
Botrytis cinerea; single active compound 16 mg/l
  Efficacy (% of untreated control): 0%

## CC(C)(C)C(O)(CCc1ccc(Cl)cc1)Cn1cncn1 (centres unmarked) [tebuconazole, 1-(4-chlorophenyl)-4,4-dimethyl-3-[1,2,4]triazol-1-ylmethylpentan-3-ol]
[1]; single active compound 4 mg/l
  Efficacy (% of untreated control): 0%

## zinc ammoniate ethylenebis(dithiocarbamate) [metiram]
Alternaria solani; [2]
  Efficacy (% of untreated control, Abbott): 0%

## Cn1cc(C(=O)Nc2ccccc2-c2ccccc2C(F)(F)F)c(C(F)(F)F)n1 [No. 57, N-(2′-trifluoromethylbiphen-2-yl)-1-methyl-3-trifluoromethyl-1H-pyrazole-4-carboxamide]
[1]; single active compound 16 mg/l
  Efficacy (% of untreated control): 41%
Botrytis cinerea; single active compound 4 mg/l
  Efficacy (% of untreated control): 0%
Botrytis cinerea; single active compound 16 mg/l
  Efficacy (% of untreated control): 0%
Botrytis cinerea; single active compound 63 mg/l
  Efficacy (% of untreated control): 22%

## COC(=O)N(OC)c1ccccc1COc1ccn(-c2ccc(Cl)cc2)n1 [pyraclostrobin, methyl N-{2-[1-(4-chlorophenyl)-1H-pyrazol-3-yloxymethyl]phenyl}(N-methoxy)carbamate]
Botrytis cinerea; single active compound 16 mg/l
  Efficacy (% of untreated control): 11%

## Cc1cc(C)nc(Nc2ccccc2)n1 [pyrimethanil, 4,6-dimethylpyrimidin-2-ylphenylamine]
Botrytis cinerea; single active compound 4 mg/l
  Efficacy (% of untreated control): 0%
Botrytis cinerea; single active compound 63 mg/l
  Efficacy (% of untreated control): 0%

## COc1ccc(C(=CC(=O)N2CCOCC2)c2ccc(Cl)cc2)cc1OC [dimethomorph, 3-(4-chlorophenyl)-3-(3,4-dimethoxyphenyl)-1-morpholin-4-yl-propenone]
[1]; single active compound 4 mg/l
  Efficacy (% of untreated control): 0%

## Cn1cc(C(=O)Nc2ccccc2-c2ccccc2C(F)(F)F)c(C(F)F)n1 [No. 40, N-(2′-trifluoromethylbiphen-2-yl)-1-methyl-3-difluoromethyl-1H-pyrazole-4-carboxamide]
[1]; single active compound 4 mg/l
  Efficacy (% of untreated control): 18%
Botrytis cinerea; single active compound 16 mg/l
  Efficacy (% of untreated control): 11%
Botrytis cinerea; single active compound 63 mg/l
  Efficacy (% of untreated control): 44%
Alternaria solani; [2]
  Efficacy (% of untreated control, Abbott): 25%

## CO/N=C(/C(=O)OC)c1ccccc1COc1ccccc1C [kresoximmethyl, methyl (E)-methoxyimino[α-(o-tolyloxy)-o-tolyl]acetate]
Botrytis cinerea; single active compound 16 mg/l
  Efficacy (% of untreated control): 0%
Botrytis cinerea; single active compound 63 mg/l
  Efficacy (% of untreated control): 0%

## O=c1c2cc(F)ccc2nc(-n2cncn2)n1-c1ccc(Cl)cc1Cl [fluquinconazole, 3-(2,4-dichlorophenyl)-6-fluoro-2-[1,2,4]-triazol-1-yl-3H-quinazolin-4-one]
Alternaria solani; single active compound 4 mg/l, efficacy in % of untreated control
  Efficacy (% of untreated control, Abbott): 0%
